Entries after “also recorded” stand apart in the source; their conditions may differ. Where two headings read alike, the source gives them in different places.
Experiment: Tissue distribution of SHR9146 in mice after oral gavage of 40 mg/kg
Type: in vivo, ICR mice
Conditions: for concentration at 6 h / concentration at 24 h / concentration at 1 h / concentration at 3 h: male, ICR, mouse, po, 40 mg/kg oral gavage
Description: ICR mice with body weight 16–26 g were supplied by Shanghai Lingchang Biotechnology Co., Ltd. (animal breeding license number SCXK (Shanghai) 2013-0018) and housed at Shanghai Institute of Materia Medica, Chinese Academy of Sciences [animal use license number SYXK (Shanghai) 2015-0027]. The mice used in this study were fasted overnight for 12 h but had free access to water. Food was supplied 4 h post-dose. All experiments in this study were conducted in accordance with the Guidelines for the Care and Use of Laboratory Animals of Shanghai Institute of Materia Medica, Chinese Academy of Sciences.
Another set of 30 mice were randomly assigned into five groups with equal numbers, males and females, for tissue distribution study with oral gavage at a single dose of 40 mg/kg at predetermined different time points: pre-dose and post dose at 1, 3, 6, and 24 h, respectively. The whole brain, heart, liver, spleen, lung, kidney, bladder, pancreas, testis, ovary, uterus, stomach, small intestine, adrenal gland, skin, skeletal muscle, thyroid gland, and abdominal fat tissues as well as the whole blood and plasma samples were harvested. Tissue samples were washed with 0.9% sodium chloride solution to remove the residual blood or contents, blotted on a filter paper, and stored at −70°C prior to the analysis.
Protein precipitation was selected for the pretreatment of both the plasma and the tissue homogenate prepared after thawing at room temperature, cut into pieces, and homogenized with a quintuple methanol–water mixture (1:1, v/v) for each tissue sample.
Briefly as follows, an aliquot of 25-μL plasma or tissue homogenate was spiked with 100 μL of internal standard solution (1 μg/mL for plasma, 0.2 μg/mL for tissue homogenate) and 300 μL of methanol added and vortex mixed for 60 s. The mixture was then centrifuged at 14,000 rpm at 4°C for 5.0 min, and the supernatant was diluted with methanol–water (4:1, v/v) in a ratio of 1:9 for the plasma or 1:1 for the tissue homogenate, and 5 μL of the resulting solution was injected for the LC-MS/MS analysis.
After oral administration of 40 mg/kg SHR9146, samples in different tissues at predetermined time points (pre-drug administration, post-drug administration at 1, 3, 6, and 24 h) were collected and prepared for the analysis. The drug concentrations of SHR9146 (μg/g or μg/mL) were determined for each mouse, and the mean and standard deviation were further obtained (Table S7).

[1] = kidney, 40 mg/kg, Mean (n=3), read-out: SHR9146 concentration in Kidney
[2] = liver, 40 mg/kg, Mean (n=3), read-out: SHR9146 concentration in Liver
[3] = liver, 40 mg/kg, individual mice, read-out: SHR9146 concentration in Liver
[4] = lung, 40 mg/kg, Mean (n=3), read-out: SHR9146 concentration in Lung
[5] = lung, 40 mg/kg, individual mice, read-out: SHR9146 concentration in Lung
[6] = pancreas, 40 mg/kg, Mean (n=3), read-out: SHR9146 concentration in Pancreas
[7] = pancreas, 40 mg/kg, individual mice, read-out: SHR9146 concentration in Pancreas
[8] = plasma, 40 mg/kg, Mean (n=3), read-out: SHR9146 concentration in Plasma
[9] = plasma, 40 mg/kg, individual mice, read-out: SHR9146 concentration in Plasma
[10] = skeletal muscle, 40 mg/kg, Mean (n=3), read-out: SHR9146 concentration in Skeletal muscle
[11] = skeletal muscle, 40 mg/kg, individual mice, read-out: SHR9146 concentration in Skeletal muscle
[12] = skin, 40 mg/kg, Mean (n=3), read-out: SHR9146 concentration in Skin
[13] = small intestine, 40 mg/kg, Mean (n=3), read-out: SHR9146 concentration in Small intestine
[14] = small intestine, 40 mg/kg, individual mice, read-out: SHR9146 concentration in Small intestine
[15] = spleen, 40 mg/kg, Mean (n=3), read-out: SHR9146 concentration in Spleen
[16] = spleen, 40 mg/kg, individual mice, read-out: SHR9146 concentration in Spleen
[17] = stomach, 40 mg/kg, Mean (n=3), read-out: SHR9146 concentration in Stomach
[18] = testis, 40 mg/kg, Mean (n=3), read-out: SHR9146 concentration in Testis
[19] = thyroid gland, 40 mg/kg, Mean (n=3), read-out: SHR9146 concentration in thyroid gland
[20] = thyroid gland, 40 mg/kg, individual mice, read-out: SHR9146 concentration in thyroid gland
[21] = whole blood, 40 mg/kg, Mean (n=3), read-out: SHR9146 concentration in Whole blood
[22] = whole blood, 40 mg/kg, individual mice, read-out: SHR9146 concentration in Whole blood

With `OCCn1cc(-c2ccc(N3CCC([C@H]4c5c(F)cccc5-c5cncn54)CC3)cc2)cn1` [SHR9146] the concentration at 6 h [1] was 210 ng/g, the concentration at 24 h [1] was 18 ng/g and the concentration at 24 h (kidney, 40 mg/kg, individual mice, read-out: SHR9146 concentration in Kidney) was 55 ng/g. It also gave a concentration at 1 h [2] of 20000 ng/g, a concentration at 1 h [3] of 22000 ng/g and a concentration at 3 h [2] of 9670 ng/g. It also gave a concentration at 6 h [2] of 633 ng/g, a concentration at 24 h [2] of 110 ng/g and a concentration at 24 h [3] of 330 ng/g. It also gave a concentration at 1 h [4] of 12500 ng/g, a concentration at 1 h [5] of 13100 ng/g and a concentration at 3 h [4] of 5160 ng/g. It also gave a concentration at 6 h [4] of 645 ng/g, a concentration at 6 h [5] of 725 ng/g and a concentration at 24 h [4] of 11700 ng/g. It also gave a concentration at 1 h [6] of 12600 ng/g, a concentration at 1 h [7] of 13800 ng/g and a concentration at 3 h [6] of 4870 ng/g. The concentration at 6 h [6] was 67 ng/g, the concentration at 6 h [7] was 74 ng/g and the concentration at 1 h [8] was 9120 ng/mL. It also gave a concentration at 1 h [9] of 10100 ng/mL, a concentration at 3 h [8] of 3710 ng/mL and a concentration at 6 h [8] of 49 ng/mL. For the same compound, the concentration at 6 h [9] was 53 ng/mL, the concentration at 1 h [10] was 5600 ng/g and the concentration at 1 h [11] was 6100 ng/g. The concentration at 3 h [10] was 2220 ng/g, the concentration at 6 h [10] was 23 ng/g and the concentration at 6 h [11] was 70 ng/g. It also gave a concentration at 1 h [12] of 7210 ng/g, a concentration at 3 h [12] of 3110 ng/g and a concentration at 6 h [12] of 113 ng/g. The concentration at 24 h [12] was 21 ng/g, the concentration at 24 h (skin, 40 mg/kg, individual mice, read-out: SHR9146 concentration in Skin) was 64 ng/g and the concentration at 1 h [13] was 22700 ng/g. For the same compound, the concentration at 1 h [14] was 19200 ng/g, the concentration at 3 h [13] was 6910 ng/g and the concentration at 6 h [13] was 90 ng/g. The concentration at 6 h [14] was 117 ng/g, the concentration at 1 h [15] was 4840 ng/g and the concentration at 1 h [16] was 5540 ng/g. It also gave a concentration at 3 h [15] of 1700 ng/g, a concentration at 6 h [15] of 17 ng/g and a concentration at 6 h [16] of 51 ng/g. The concentration at 1 h [17] was 38000 ng/g, the concentration at 1 h (stomach, 40 mg/kg, individual mice, read-out: SHR9146 concentration in Stomach) was 39900 ng/g and the concentration at 3 h [17] was 10200 ng/g. For the same compound, the concentration at 6 h [17] was 1140 ng/g, the concentration at 24 h [17] was 499 ng/g and the concentration at 1 h [18] was 4000 ng/g. For the same compound, the concentration at 1 h (testis, 40 mg/kg, individual mice, read-out: SHR9146 concentration in Testis) was 4160 ng/g, the concentration at 3 h [18] was 1660 ng/g and the concentration at 6 h [18] was 100 ng/g. The concentration at 1 h [19] was 7010 ng/g, the concentration at 1 h [20] was 7250 ng/g and the concentration at 3 h [19] was 2730 ng/g. For the same compound, the concentration at 6 h [19] was 63 ng/g, the concentration at 6 h [20] was 71 ng/g and the concentration at 1 h [21] was 6060 ng/mL. The concentration at 1 h [22] was 6820 ng/mL, the concentration at 3 h [21] was 2440 ng/mL and the concentration at 6 h [21] was 22 ng/mL. The concentration at 6 h [22] was 67 ng/mL, the distribution into brain (oral 40 mg/kg, mice, 40 mg/kg) was “lowest; also recorded: rarely distributed in the brain” and the tissue distribution (oral 40 mg/kg, mice, 40 mg/kg) was “widely distributed in various tissues and mainly distributed in the stomach, adrenal gland, liver, and lung”. The “tissue concentration at 24 h as share of the highest concentration” value (oral 40 mg/kg, mice, last time point 24 h) was “around 3.1%”.
